Holding throughout (experiment): MIC determination (broth microdilution)
Common to all, as to format: cell-based, Candida auris
Common to all, as to conditions: Candidozyma auris

Assay [1] deals with C. auris AR Bank # 0387 (strain VI).
The test system of assay [2] is C. auris AR Bank # 0386 (strain V).
In assay [3] the test system is C. auris AR Bank # 0389 (strain VIII).
For assay [4], the system named is C. auris AR Bank # 0381 (strain I).
In assay [5] the test system is C. auris AR Bank # 0384 (strain K).
Assay [6] relates to C. auris AR Bank # 0382 (strain II).
Assay [7] relates to C. auris AR Bank # 0385 (strain IV).
Assay [8] concerns C. auris AR Bank # 0388 (strain VII).
The subject of assay [9] is C. auris AR Bank # 0383 (strain III).
The subject of assay [10] is C. auris AR Bank # 0390 (strain L).

Like-named read-outs stand apart in the source and are kept apart here.

On to `CC[C@H](C)C[C@H](C)CCCCCCCCC(=O)N[C@H]1C[C@@H](O)[C@@H](NCCN)NC(=O)[C@@H]2[C@@H](O)CCN2C(=O)[C@H]([C@H](O)CCN)NC(=O)[C@H]([C@H](O)[C@@H](O)c2ccc(O)cc2)NC(=O)[C@@H]2C[C@@H](O)CN2C(=O)[C@H]([C@@H](C)O)NC1=O` [CAS, caspofungin], for which the MIC was 31.3 µg/mL in [1]; 28.6 µM in [1] (read-out: MIC (in parentheses)); 7.8 µg/mL in assay [2]; 7.1 µM in [2] (read-out: MIC (in parentheses)); 7.8 µg/mL in assay [3]; 7.1 µM in assay [3] (read-out: MIC (in parentheses)). In addition, the MIC in assay [4] is under 0.98 µg/mL; in [4] (read-out: MIC (in parentheses)), under 0.9 µM; in assay [5], 1.95 µg/mL; in assay [5] (read-out: MIC (in parentheses)), 1.8 µM; in assay [6], under 0.98 µg/mL; in [6] (read-out: MIC (in parentheses)) it was under 0.9 µM. The MIC in assay [7] is under 0.98 µg/mL; in assay [7] (read-out: MIC (in parentheses)), under 0.9 µM; in assay [8], 31.3 µg/mL; in [8] (read-out: MIC (in parentheses)) it was 28.6 µM; in assay [9], 1.95 µg/mL; in assay [9] (read-out: MIC (in parentheses)), 1.8 µM. Further, the MIC was determined as 7.8 µg/mL in [10] and 7.1 µM in assay [10] (read-out: MIC (in parentheses)).

The values are drawn from US11564394B2, “Distorted gold (I)-phosphine complexes and methods for use as antifungal agents” (University of Kentucky Research Foundation, priority 2019, dated 2023).
